Experiments:
Assay type in all cases: cell-based
Pyricularia oryzae = test: microbe, parasite or virus in culture; conditions: 168 h, read-out: % control compared to the untreated check (radial growth)
Rhizoctonia solani = Rhizoctonia solani (rice sheath blight/potato black scurf) in vitro test, radial growth on Potato Dextrose Agar; conditions: 168 h, 300 ppm, seven days, 25° C., read-out: % control compared to the untreated check (radial growth)
Botrytis cinerea = Botrytis cinerea (gray mold) in vitro test, radial growth on Potato Dextrose Agar; conditions: 168 h, 300 ppm, seven days, 22° C., read-out: % (control) compared to the untreated check (radial growth)
Alternaria solani = Alternaria solani (early blight of tomato/potato) in vitro test, radial growth on Potato Dextrose Agar; conditions: 168 h, 300 ppm, seven days, 25° C., read-out: % control compared to the untreated check (radial growth)
Colletotrichum capsici = Colletotrichum capsici (anthracnose) in vitro test, radial growth on Potato Dextrose Agar; conditions: Colletotrichum truncatum, 168 h; 300 ppm; seven days, 25° C.; read-out: % control compared to the untreated check (radial growth)
Septoria lycopersici = Septoria lycopersici (leaf spot of tomato) in vitro test, radial growth on Potato Dextrose Agar; conditions: 168 h, seven days, 25° C., read-out: % control compared to the untreated check (radial growth)
Fusarium culmorum = Fusarium culmorum (foot rot of cereals) in vitro test, radial growth on Potato Dextrose Agar; conditions: Fusarium culmorum, 168 h, read-out: % control compared to the untreated check (radial growth)

SMILES | inhibition of growth at 300 ppm (Pyricularia oryzae) | inhibition of growth at 300 ppm (Rhizoctonia solani) | inhibition of growth at 300 ppm (Botrytis cinerea) | inhibition of growth at 300 ppm (Alternaria solani) | inhibition of growth at 300 ppm (Colletotrichum capsici) | inhibition of growth at 300 ppm (Septoria lycopersici) | inhibition of growth at 300 ppm (Fusarium culmorum)
CCN(C)C=Nc1cc(C)c(Cc2ccc(SC(F)(F)F)cc2)cc1C [Compound 92, N′-(2,5-dimethyl-4-(4-((trifluoromethyl)thio)benzyl)phenyl)-N-ethyl-N-methylformimidamide] | > 75% | > 80% | > 80% | > 75% | > 80% | > 70% | 75%
CCN(C)C=Nc1cc(C)c(Cc2cccc(C)c2)cc1F [Compound 210, N-ethyl-N′-(2-fluoro-5-methyl-4-(3-methylbenzyl)phenyl)-N-methylformimidamide] | > 75% | > 80% | > 80% | > 75% | > 80% | > 70% | 75%
CCN(C)C=Nc1cc(C)c(Cc2ccc(F)c(C)c2)cc1C [Compound 109, N-ethyl-N′-(4-(4-fluoro-3-methylbenzyl)-2,5-dimethylphenyl)-N-methylformimidamide] | > 75% | > 80% | > 80% | > 75% | > 80% | > 70% | 75%
CCN(C)C=Nc1cc(C)c(Cc2cccc(C(F)(F)F)c2)cc1C [Compound 46, N′-(2,5-dimethyl-4-(3-(trifluoromethyl)benzyl)phenyl)-N-ethyl-N-methylformimidamide] | > 75% | > 80% | > 80% | > 75% | > 80% | > 70% | 75%
C=CCN(C)C=Nc1cc(C)c(Cc2ccccc2Cl)cc1C [Compound 84, N-allyl-N′-(4-(2-chlorobenzyl)-2,5-dimethylphenyl)-N-methylformimidamide] | > 75% | > 80% | > 80% | > 75% | > 80% | > 70% | 75%
CCN(C)C=Nc1cc(F)c(Cc2cccc(C(F)(F)F)c2)cc1C [Compound 196, N-ethyl-N′-(5-fluoro-2-methyl-4-(3-(trifluoromethyl)benzyl)phenyl)-N-methylformimidamide] | > 75% | > 80% | > 80% | > 75% | > 80% | > 70% | 75%
CCN(C)C=Nc1cc(C)c(Cc2ccc(OC)cc2)cc1C [Compound 54, N-ethyl-N′-(4-(4-methoxybenzyl)-2,5-dimethylphenyl)-N-methylformimidamide] | > 75% | > 80% | > 80% | > 75% | > 80% | > 70% | 75%
CCN(C)C=Nc1cc(C)c(Cc2cccc(Cl)c2)cc1C1CC1 [Compound 199, N′-(4-(3-chlorobenzyl)-2-cyclopropyl-5-methylphenyl)-N-ethyl-N-methylformimidamide] | > 75% | > 80% | > 80% | > 75% | > 80% | > 70% | 75%
CCN(C)C=Nc1cc(C)c(Cc2ccccc2C)cc1F [Compound 212, N-ethyl-N′-(2-fluoro-5-methyl-4-(2-methylbenzyl)phenyl)-N-methylformimidamide] | > 75% | > 80% | > 80% | > 75% | > 80% | > 70% | 75%
CCN(C)C=Nc1cc(Cl)c(Cc2ccccc2C)cc1C [Compound 257, N′-(5-chloro-2-methyl-4-(2-methylbenzyl)phenyl)-N-ethyl-N-methylformimidamide] | > 75% | > 80% | > 80% | > 75% | > 80% | > 70% | 75%
CCN(C)C=Nc1cc(C)c(Cc2cccc(Cl)c2)cc1F [Compound 208, N′-(4-(3-chlorobenzyl)-2-fluoro-5-methylphenyl)-N-ethyl-N-methylformimidamide] | > 75% | > 80% | > 80% | > 75% | > 80% | > 70% | 75%
CCN(C)C=Nc1cc(C)c(Cc2cccc(OC(F)(F)F)c2)cc1F [Compound 206, N-ethyl-N′-(2-fluoro-5-methyl-4-(3-(trifluoromethoxy)benzyl)phenyl)-N-methylformimidamide] | > 75% | > 80% | > 80% | > 75% | > 80% | > 70% | 75%
CCN(C)C=Nc1cc(C)c(Cc2cccc(F)c2)cc1F [Compound 209, N-ethyl-N′-(2-fluoro-4-(3-fluorobenzyl)-5-methylphenyl)-N-methylformimidamide] | > 75% | > 80% | > 80% | > 75% | > 80% | > 70% | 75%
CCN(C)C=Nc1cc(C#N)c(Cc2cccc(Cl)c2)cc1C [Compound 249, N′-(4-(3-chlorobenzyl)-5-cyano-2-methylphenyl)-N-ethyl-N-methylformimidamide] | > 75% | > 80% | > 80% | > 75% | > 80% | > 70% | 75%
CCN(C)C=Nc1cc(C)c(Cc2ccc(Cl)c(OC(F)(F)F)c2)cc1C [Compound 145, N′-(4-(4-chloro-3-(trifluoromethoxy)benzyl)-2,5-dimethylphenyl)-N-ethyl-N-methylformimidamide] | > 75% | > 80% | > 80% | > 75% | > 80% | > 70% | 75%
Cc1cc(N=CN(C)C(C)C)c(C)cc1Cc1ccccc1Cl [Compound 82, N′-(4-(2-chlorobenzyl)-2,5-dimethylphenyl)-N-isopropyl-N-methylformimidamide] | > 75% | > 80% | > 80% | > 75% | > 80% | > 70% | 75%
Cc1cc(N=CN2CCCCC2)c(C)cc1Cc1ccc(F)cc1 [Compound 60, N-(4-(4-fluorobenzyl)-2,5-dimethylphenyl)-1-(piperidin-1-yl)methanimine] | > 75% | > 80% | > 80% | > 75% | > 80% | > 70% | 75%
CCN(C)C=Nc1cc(C)c(Cc2cccc(F)c2)cc1C1CC1 [Compound 197, N′-(2-cyclopropyl-4-(3-fluorobenzyl)-5-methylphenyl)-N-ethyl-N-methylformimidamide] | > 75% | > 80% | > 80% | > 75% | > 80% | > 70% | 75%
CCN(C)C=Nc1cc(Cl)c(Cc2cccc(F)c2)cc1C [Compound 259, N′-(5-chloro-4-(3-fluorobenzyl)-2-methylphenyl)-N-ethyl-N-methylformimidamide] | > 75% | > 80% | > 80% | > 75% | > 80% | > 70% | 75%
CCN(C)C=Nc1cc(F)c(Cc2cccc(C)c2)cc1C [Compound 171, N-ethyl-N′-(5-fluoro-2-methyl-4-(3-methylbenzyl)phenyl)-N-methylformimidamide] | > 75% | > 80% | > 80% | > 75% | > 80% | > 70% | 75%
CCN(C)C=Nc1cc(C)c(Cc2ccc(F)c(F)c2)cc1C [Compound 146, N′-(4-(3,4-difluorobenzyl)-2,5-dimethylphenyl)-N-ethyl-N-methylformimidamide] | > 75% | > 80% | > 80% | > 75% | > 80% | > 70% | 75%
